The results in this text go back to PubChem BioAssay (NCI).

Each structure is given as a SMILES string. Where “and” joins values, the source holds several entries; their conditions need not be identical. Equal values may be shown once.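 Dose response: 5 concentrations. Exposure: 48 h. Format: 96-well plates. Endpoint: linear interpolation; highest concentration if not reached. GI50 is the concentration that inhibits growth by half. TGI marks complete inhibition of growth.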 Some results are limits rather than exact numbers.

What all share (assay): inhibition of tumour cell growth, NCI panel, 48 h
Assay [1] concerns OVCAR-3 ovarian.
Assay [2] deals with MALME-3M melanoma.
The test system of assay [3] is SF-539 CNS.
The test system of assay [4] is HCT-116 colon.
Assay [5] has as its system SNB-19 CNS.
For assay [6], the system named is RXF 393 renal.
For assay [7], the system named is OVCAR-4 ovarian.
Assay [8] has as its system TK-10 renal.
For assay [9], the system named is CCRF-CEM leukemia.

For the molecule `Cc1ccc(NC(=O)OCC(COc2ccc(Cl)cc2Cl)OC(=O)Nc2ccc(C)cc2)cc1` (configuration not stated), the TGI in assay [1], in assay [2], in [3], in assay [4], in [5] and in assay [6] was above 100 µM each time. Also, in assay [7], the TGI was above 100 µM.
Take `CCCCCCCCCCCCCB(O)O`: the TGI in [8], in [1], in [2], in assay [9], in assay [3] and in assay [4] was above 100 µM each time. Also, the TGI was above 100 µM in assay [5]; > 100 µM and 73.7 µM in [6]; above 100 µM in assay [7]. Besides, the GI50 in assay [4] was > 100 µM and 47.8 µM; in assay [6], > 100 µM and 29.5 µM; in assay [7], > 100 µM and 49.3 µM.
As to `CC(=O)O[C@H]1CC2C=CC3C(CCC31)O2` (some centres not stated), the TGI in assay [8], in assay [1], in assay [2], in assay [9], in [5] and in assay [6] was above 100 µM throughout. This molecule showed a TGI in assay [7] above 100 µM.
On to `C=C(CCCO)[C@@H]1CC[C@@](C)(O)[C@H]1C`, for which the TGI in [8], in [1], in [2], in [3], in [4] and in assay [5] was above 100 µM each time. Further, the TGI in [6] and in assay [7] was above 100 µM in each case.
On to `CC(C)C1N2CCCCC2[C@@H]2c3[nH]c4ccccc4c3CCN12` (some centres not stated), for which the TGI in [1], in [9], in [3], in assay [4], in assay [5] and in [6] was above 100 µM each time. In assay [7], this molecule gave a TGI above 100 µM.
Regarding `CC1CC[P+](c2ccccc2)(c2ccccc2)CC1`, the TGI in assay [8], in assay [1], in assay [2], in assay [9], in assay [3] and in assay [4] was above 100 µM in each case. Besides, the TGI in assay [5] and in assay [6] was above 100 µM each time.
As to `COc1ccc2nc(NC(=O)C(=O)NNC(=O)c3ccncc3)sc2c1`, the TGI in assay [8], in [1], in assay [2], in assay [9], in assay [3] and in assay [4] was above 100 µM throughout. The TGI in [5], in assay [6] and in assay [7] was above 100 µM each time.
Consider `C/C(=N\NC(=O)CC(=O)N(C(=O)c1ccc(Cl)cc1)c1ccc(C)cc1)c1ccccc1O`, for which the TGI in assay [8], in [1], in [2], in assay [9], in assay [3] and in assay [4] was above 100 µM each time. Also, the TGI in [5] is above 100 µM; in assay [6], above 100 µM; in assay [7] it was 13.7 µM.
For the molecule `COc1cccc(NC(=O)C(=O)C2C=CCS2(=O)=O)c1` (configuration not stated), the TGI in assay [8], in assay [1], in assay [2], in [9], in assay [3] and in assay [4] was above 100 µM in each case. For the same molecule, the TGI in assay [5], in assay [6] and in assay [7] was above 100 µM in each case.
With `O=C1NC(c2cccc(OCc3ccccc3)c2)Nc2ccccc21` (configuration not stated), the TGI is above 75.7 µM in assay [8]; 0.558 µM in [1]; 35 µM in assay [2]; 3.99 µM in assay [9]; 0.708 µM in assay [3]; 1.93 µM in assay [4]. The TGI in assay [5] and in [7] was above 100 µM each time.
`Cc1ccc2nc(NC(=O)/C(=N\NC(=S)NN)C3C(=O)NC(=S)NC3=O)sc2c1`: the TGI in assay [8], in assay [2], in assay [9], in assay [3], in assay [4] and in assay [5] was above 100 µM throughout. Besides, the TGI in assay [6] and in assay [7] was above 100 µM throughout.
`COC[C@H](C)N=CN1CCc2ccccc2C1(Cc1ccccc1)Cc1ccccc1`: the TGI in assay [8] came to 38.8 µM; in assay [1], 43.8 µM; in [2], 24.7 µM; in assay [9], 56.7 µM; in [3], 33.6 µM; in assay [4] it was 29.7 µM. The TGI in [5] was 32.5 µM; in assay [6] it was 32.7 µM; in assay [7], 35.6 µM.
As to `CCOC(=O)CNc1nnnn1C1OC(CO)C(O)C1O` (configuration not stated), the TGI in assay [8], in assay [1], in assay [2], in assay [9], in assay [3] and in [4] was above 100 µM throughout. Besides, the TGI in assay [6] was above 100 µM.
`c1ccc2c(NCCCCCCNc3cccc4ccccc34)cccc2c1`: the TGI in assay [8], in assay [1], in assay [2], in assay [9], in [3] and in assay [4] was above 100 µM throughout. For the same molecule, the TGI in [5] and in assay [7] was above 100 µM each time.
`COc1c2c(cc3c1C(=O)Cc1ccc4c(c1CN(C)CC3)OCO4)OCO2`: the TGI in assay [8], in assay [1], in assay [2], in assay [9], in assay [3] and in [4] was above 100 µM each time. In addition, the TGI in assay [5], in assay [6] and in assay [7] was above 100 µM throughout.
With `c1ccc(N/N=C2\NN=C(c3ccccc3)CS2)cc1`, the TGI in assay [8] is 26.5 µM; in assay [1] it was 50.9 µM; in assay [9], 54.9 µM; in assay [3], 41.7 µM; in assay [4] it was 15.2 µM; in assay [5], 85.9 µM. The TGI in assay [6] stood at 25.1 µM.
